Experimental data from patent publication US11491120B2, “Pharmacological prophylactics against stress-induced affective disorders in females” (The Trustees of Columbia University in the City of New York, priority 2017, dated 2022).
“Also recorded” adds a separate entry of the source.

Experiments:
[1] = tested on: female 129S6/SvEv mice; assay: Forced swim test (FST), immobility time, after stress; settings: for p, Immobility Time Average (min 3-6) / * (significance), Immobility Time (min 1) / p, Immobility Time (min 1) / p, Immobility Time (min 1-6) / p, Immobility Time (min 3) / p, Immobility Time (min 4) / p, Immobility Time (min 5) / p, Immobility Time (min 6): Forced Swim Test Day 1, 1 week prophylactic drug
[2] = tested on: female 129S6/SvEv mice; assay: Contextual fear conditioning (CFC), 3-shock, freezing in training and context re-exposure; settings: for Freezing during 3-shock CFC training vs saline: 1 week before CFC
[3] = Dunnett test Sal vs. drug (2.5)
[4] = single injection 1 week before stressor, female mice
[5] = Contextual Fear Conditioning Re-exposure, Dunnett test Sal vs. drug (0.025), 1 week prophylactic drug
[6] = Contextual Fear Conditioning Re-exposure, Dunnett test Sal vs. drug (0.075), 1 week prophylactic drug
[7] = Contextual Fear Conditioning Re-exposure, Dunnett test Sal vs. drug (0.1), 1 week prophylactic drug
[8] = Contextual Fear Conditioning Re-exposure, Dunnett test Sal vs. drug (0.3), 1 week prophylactic drug
[9] = Contextual Fear Conditioning Re-exposure, Dunnett test Sal vs. drug (2.5), 1 week prophylactic drug
[10] = Contextual Fear Conditioning Re-exposure, Dunnett test Sal vs. drug (10), 1 week prophylactic drug
[11] = Contextual Fear Conditioning Training, Dunnett test Sal vs. drug (0.025), 1 week prophylactic drug
[12] = Contextual Fear Conditioning Training, Dunnett test Sal vs. drug (0.075), 1 week prophylactic drug
[13] = Contextual Fear Conditioning Training, Dunnett test Sal vs. drug (0.1), 1 week prophylactic drug
[14] = Contextual Fear Conditioning Training, Dunnett test Sal vs. drug (0.3), 1 week prophylactic drug
[15] = Contextual Fear Conditioning Training, Dunnett test Sal vs. drug (2.5), 1 week prophylactic drug
[16] = Contextual Fear Conditioning Training, Dunnett test Sal vs. drug (10), 1 week prophylactic drug

Structure (SMILES): N[C@]1(c2ccccc2Cl)CCC[C@H](O)C1=O [(2S,6S)-HNK]
- p, Immobility Time Average (min 3-6) ([1]; Dunnett test Sal vs. drug (0.3)): 0.5532
- * (significance), Immobility Time (min 1) [1, 3]: * (* p<0.05)
- p, Immobility Time (min 1) [1, 3]: 0.0147
- p, Immobility Time (min 1-6) [1, 3]: 0.9878
- p, Immobility Time (min 3) [1, 3]: 0.9995
- p, Immobility Time (min 4) [1, 3]: 0.9958
- p, Immobility Time (min 5) [1, 3]: 0.9958
- p, Immobility Time (min 6) [1, 3]: 0.9992
- p, Immobility Time Average (min 3-6) [1, 3]: 0.9990
- * (significance), Immobility Time (min 1) ([1]; Dunnett test Sal vs. drug (10)): ** (** p<0.01)
- p, Immobility Time (min 1) ([1]; Dunnett test Sal vs. drug (10)): 0.0064
- p, Immobility Time (min 1-6) ([1]; Dunnett test Sal vs. drug (10)): >0.9999
- p, Immobility Time (min 3) ([1]; Dunnett test Sal vs. drug (10)): 0.9307
- p, Immobility Time (min 4) ([1]; Dunnett test Sal vs. drug (10)): 0.9497
- p, Immobility Time (min 5) ([1]; Dunnett test Sal vs. drug (10)): 0.9952
- p, Immobility Time (min 6) ([1]; Dunnett test Sal vs. drug (10)): 0.5393
- p, Immobility Time Average (min 3-6) ([1]; Dunnett test Sal vs. drug (10)): 0.8035
- Immobility on FST Day 2 vs saline ([1]; all doses of (2S,6S)-HNK and all other dose groups, 1 week before CFC, female mice): failed to reduce average immobility
- Prophylactic efficacy against stress-induced depressive-like behavior [1, 4]: but not (2S,6S)-HNK
- p, Sal vs. drug, Dunnett test: Freezing (Average), Contextual Fear Conditioning Re-exposure ([2]; 0.025 mg/kg, 1 week prophylactic drug): 0.9898
- p, Sal vs. drug, Dunnett test: Freezing (Average), Contextual Fear Conditioning Re-exposure ([2]; 0.075 mg/kg, 1 week prophylactic drug): 0.4829
- Freezing during 3-shock CFC training vs saline ([2]; 0.1 mg/kg, female mice): froze significantly less
- p, Sal vs. drug, Dunnett test: Freezing (Average), Contextual Fear Conditioning Re-exposure ([2]; 0.1 mg/kg, 1 week prophylactic drug): 0.9999
- Freezing during 3-shock CFC training vs saline ([2]; 0.3 mg/kg, female mice): froze significantly more
- p, Sal vs. drug, Dunnett test: Freezing (Average), Contextual Fear Conditioning Re-exposure ([2]; 0.3 mg/kg, 1 week prophylactic drug): 0.1973
- p, Sal vs. drug, Dunnett test: Freezing (Average), Contextual Fear Conditioning Re-exposure ([2]; 2.5 mg/kg, 1 week prophylactic drug): 0.9996
- p, Sal vs. drug, Dunnett test: Freezing (Average), Contextual Fear Conditioning Re-exposure ([2]; 10 mg/kg, 1 week prophylactic drug): 0.9896
- p, Freezing (min 1-5) [2, 5]: 0.9898
- p, Freezing (min 2) [2, 5]: >0.9999
- p, Freezing (min 3) [2, 5]: 0.7775
- p, Freezing (min 4) [2, 5]: 0.9990
- p, Freezing (min 5) [2, 5]: 0.9996
- p, Freezing (min 1-5) [2, 6]: 0.4829
- p, Freezing (min 2) [2, 6]: 0.9135
- p, Freezing (min 3) [2, 6]: 0.3091
- p, Freezing (min 4) [2, 6]: 0.5808
- p, Freezing (min 5) [2, 6]: 0.2703
- p, Freezing (min 1-5) [2, 7]: 0.9999
- p, Freezing (min 2) [2, 7]: 0.9997
- p, Freezing (min 3) [2, 7]: 0.9998
- p, Freezing (min 4) [2, 7]: 0.9889
- p, Freezing (min 5) [2, 7]: >0.9999
- p, Freezing (min 1-5) [2, 8]: 0.1973
- p, Freezing (min 2) [2, 8]: 0.2064
- p, Freezing (min 3) [2, 8]: 0.2280
- p, Freezing (min 4) [2, 8]: 0.8082
- p, Freezing (min 5) [2, 8]: 0.3262
- p, Freezing (min 1-5) [2, 9]: 0.9996
- p, Freezing (min 2) [2, 9]: 0.9991
- p, Freezing (min 3) [2, 9]: 0.9908
- p, Freezing (min 4) [2, 9]: 0.9997
- p, Freezing (min 5) [2, 9]: >0.9999
- p, Freezing (min 1-5) [2, 10]: 0.9896
- p, Freezing (min 2) [2, 10]: 0.5764
- p, Freezing (min 3) [2, 10]: 0.9993
- p, Freezing (min 4) [2, 10]: 0.9991
- p, Freezing (min 5) [2, 10]: >0.9999
- p, Freezing (min 1-5) [2, 11]: 0.9955
- p, Freezing (min 4) [2, 11]: 0.7894
- p, Freezing (min 5) [2, 11]: >0.9999
- p, Freezing (min 1-5) [2, 12]: 0.9996
- p, Freezing (min 4) [2, 12]: 0.9991
- p, Freezing (min 5) [2, 12]: >0.9999
- p, Freezing (min 1-5) [2, 13]: 0.2466
- p, Freezing (min 4) [2, 13]: 0.3064
- p, Freezing (min 5) [2, 13]: 0.5117
- * (significance), Freezing (min 1-5) [2, 14]: ** (** p<0.01)
- p, Freezing (min 1-5) [2, 14]: 0.0085
- p, Freezing (min 4) [2, 14]: 0.0675
- p, Freezing (min 5) [2, 14]: 0.0731
- p, Freezing (min 1-5) [2, 15]: 0.6733
- p, Freezing (min 4) [2, 15]: 0.9438
- p, Freezing (min 5) [2, 15]: 0.7492
- p, Freezing (min 1-5) [2, 16]: 0.5049
- p, Freezing (min 4) [2, 16]: 0.7737
- p, Freezing (min 5) [2, 16]: 0.5845
- Freezing during re-exposure to the CFC training context vs saline ([2]; single i.p. injection 1 week before 3-shock CFC, all doses, female mice): do not significantly alter freezing; also recorded: did not alter overall freezing
- Attenuation of learned fear [2, 4]: do not attenuate learned fear
